In PubChem BioAssay AID1745844 (Carcinogenic Potency Database (CPDB), 2022):
The source made the active and inactive calls. No rule for the calls is given here.

Tested on: rodent lifetime carcinogenesis bioassay, tumor incidence TD50
Experiment: carcinogenic potency in animals, long-term in vivo studies, CPDB compilation (AID 1745844)

Cn1cc(OCC(O)CNC(C)(C)C)c2ccccc2c1=O (stereo unspecified)
carcinogen call (mouse, strain Charles River CD1, females, by gavage, site: any site (literature study), lesion: several types, types named in the paper, dosed 80 weeks, study length 80 weeks): negative (inactive)
carcinogen call (mouse, strain Charles River CD1, females, by gavage, site: liver, lesion: one or several types, types not named, dosed 80 weeks, study length 80 weeks): negative (inactive)
carcinogen call (mouse, strain Charles River CD1, females, by gavage, site: lung, lesion: adenocarcinoma, dosed 80 weeks, study length 80 weeks): negative (inactive)
TD50 (mouse, strain Charles River CD1, females, by gavage, site: lung, lesion: adenoma, dosed 80 weeks, study length 80 weeks): 843 mg/kg/day (inactive)
TD50 (mouse, strain Charles River CD1, males, by gavage, site: any site (literature study), lesion: several types, types named in the paper, dosed 80 weeks, study length 80 weeks): 256 mg/kg/day (inactive)
TD50 (mouse, strain Charles River CD1, males, by gavage, site: liver, lesion: hepatocellular adenoma, dosed 80 weeks, study length 80 weeks): 131 mg/kg/day (inactive)
carcinogen call (mouse, strain Charles River CD1, males, by gavage, site: liver, lesion: hepatocellular carcinoma, dosed 80 weeks, study length 80 weeks): negative (inactive)
TD50 (mouse, strain Charles River CD1, males, by gavage, site: lung, lesion: adenocarcinoma, dosed 80 weeks, study length 80 weeks): 99.2 mg/kg/day (inactive)
TD50 (mouse, strain Charles River CD1, males, by gavage, site: lung, lesion: adenoma, dosed 80 weeks, study length 80 weeks): 7200 mg/kg/day (inactive)
TD50 (rat, strain Charles River CD (Sprague-Dawley), females, by gavage, site: any site (literature study), lesion: several types, types named in the paper, dosed 104 weeks, study length 104 weeks): 40 mg/kg/day (inactive)
carcinogen call (rat, strain Charles River CD (Sprague-Dawley), females, by gavage, site: liver, lesion: hepatocellular adenoma, dosed 104 weeks, study length 104 weeks): negative (inactive)
TD50 (rat, strain Charles River CD (Sprague-Dawley), males, by gavage, site: any site (literature study), lesion: several types, types named in the paper, dosed 104 weeks, study length 104 weeks): 128 mg/kg/day (inactive)
TD50 (rat, strain Charles River CD (Sprague-Dawley), males, by gavage, site: liver, lesion: hepatocellular adenoma, dosed 104 weeks, study length 104 weeks): 384 mg/kg/day (inactive)
carcinogen call (rat, strain Charles River CD (Sprague-Dawley), males, by gavage, site: liver, lesion: hepatocellular carcinoma, dosed 104 weeks, study length 104 weeks): negative (inactive)

Cc1c(N)nc(C)c2c1[nH]c1ccccc12
TD50 (mouse, strain CDF1, females, in feed, site: liver, lesion: hepatocellular carcinoma, dosed 88 weeks, study length 88 weeks): 29.6 mg/kg/day
TD50 (mouse, strain CDF1, females, in feed, site: liver, lesion: several types, types named in the paper, dosed 88 weeks, study length 88 weeks): 25 mg/kg/day
TD50 (mouse, strain CDF1, males, in feed, site: liver, lesion: hepatocellular carcinoma, dosed 88 weeks, study length 88 weeks): 112 mg/kg/day
TD50 (mouse, strain CDF1, males, in feed, site: liver, lesion: several types, types named in the paper, dosed 88 weeks, study length 88 weeks): 109 mg/kg/day
TD50 (rat, strain F344/DuCrj, females, in feed, site: liver, lesion: hepatocellular carcinoma, dosed 52 weeks, study length 52 weeks): 0.577 mg/kg/day
TD50 (rat, strain F344/DuCrj, males, in feed, site: liver, lesion: hepatocellular carcinoma, dosed 52 weeks, study length 52 weeks): 0.574 mg/kg/day

O=C1CCC(=O)O1
carcinogen call (mouse, strain B6C3F1, females, by gavage, site: any site (literature study), lesion: several types, types named in the paper, dosed 103 weeks, study length 104 weeks): negative (inactive)
TD50 (mouse, strain B6C3F1, females, by gavage, site: lung, lesion: alveolar/bronchiolar adenoma + alveolar/bronchiolar carcinoma, dosed 103 weeks, study length 104 weeks): 4690 mg/kg/day
carcinogen call (mouse, strain B6C3F1, males, by gavage, site: any site (literature study), lesion: several types, types named in the paper, dosed 103 weeks, study length 104 weeks): negative (inactive)
carcinogen call (rat, strain Fischer 344, females, by gavage, site: any site (literature study), lesion: several types, types named in the paper, dosed 103 weeks, study length 105 weeks): negative (inactive)
TD50 (rat, strain Fischer 344, females, by gavage, site: liver, lesion: hepatocellular adenoma + hepatocellular carcinoma + neoplastic nodule, dosed 103 weeks, study length 105 weeks): 1300 mg/kg/day
carcinogen call (rat, strain Fischer 344, males, by gavage, site: any site (literature study), lesion: several types, types named in the paper, dosed 103 weeks, study length 105 weeks): negative (inactive)

Cc1csc(NNC=O)n1
TD50 (rat, strain Sprague-Dawley, females, in feed, site: any site (literature study), lesion: several types, types named in the paper, dosed 46 weeks, study length 64 weeks): 14.4 mg/kg/day
TD50 (rat, strain Sprague-Dawley, females, in feed, site: mammary gland, lesion: adenofibroma, dosed 46 weeks, study length 64 weeks): 14.4 mg/kg/day

CNN
TD50 (hamster, strain Syrian Golden, females, in drinking water, site: cecum, lesion: polypoid adenoma, dosed 86 weeks, study length 86 weeks): 29.8 mg/kg/day
TD50 (hamster, strain Syrian Golden, females, in drinking water, site: cecum, lesion: several types, types named in the paper, dosed 86 weeks, study length 86 weeks): 25.8 mg/kg/day
TD50 (hamster, strain Syrian Golden, females, in drinking water, site: liver, lesion: histiocytoma, malignant, dosed 86 weeks, study length 86 weeks): 15.4 mg/kg/day
TD50 (hamster, strain Syrian Golden, females, in drinking water, site: liver, lesion: several types, types named in the paper, dosed 86 weeks, study length 86 weeks): 30.8 mg/kg/day
TD50 (hamster, strain Syrian Golden, females, in drinking water, site: lung, lesion: angiosarcoma, dosed 86 weeks, study length 86 weeks): 297 mg/kg/day (inactive)
TD50 (hamster, strain Syrian Golden, males, in drinking water, site: cecum, lesion: polypoid adenoma, dosed 100 weeks, study length 100 weeks): 50.7 mg/kg/day
TD50 (hamster, strain Syrian Golden, males, in drinking water, site: cecum, lesion: several types, types named in the paper, dosed 100 weeks, study length 100 weeks): 42.1 mg/kg/day
TD50 (hamster, strain Syrian Golden, males, in drinking water, site: liver, lesion: histiocytoma, malignant, dosed 100 weeks, study length 100 weeks): 9.2 mg/kg/day
carcinogen call (mouse, strain Swiss, females, by gavage, site: lung, lesion: one or several types, types not named, dosed 40 weeks, study length 55 weeks): negative (inactive)
TD50 (mouse, strain Swiss, females, in drinking water, site: bile duct, lesion: cholangioma, dosed 62 weeks, study length 62 weeks): 29.2 mg/kg/day
TD50 (mouse, strain Swiss, females, in drinking water, site: bile duct, lesion: several types, types named in the paper, dosed 62 weeks, study length 62 weeks): 24.6 mg/kg/day
TD50 (mouse, strain Swiss, females, in drinking water, site: liver, lesion: hepatoma, dosed 62 weeks, study length 62 weeks): 51.1 mg/kg/day
TD50 (mouse, strain Swiss, females, in drinking water, site: liver, lesion: several types, types named in the paper, dosed 113 weeks, study length 113 weeks): 47.2 mg/kg/day
TD50 (mouse, strain Swiss, females, in drinking water, site: lung, lesion: adenocarcinoma, dosed 113 weeks, study length 113 weeks): 5.63 mg/kg/day
TD50 (mouse, strain Swiss, females, in drinking water, site: lung, lesion: adenoma, dosed 62 weeks, study length 62 weeks): 19.6 mg/kg/day
TD50 (mouse, strain Swiss, females, in drinking water, site: lung, lesion: adenoma, dosed 113 weeks, study length 113 weeks): 4.02 mg/kg/day
TD50 (mouse, strain Swiss, females, in drinking water, site: lung, lesion: several types, types named in the paper, dosed 62 weeks, study length 62 weeks): 21.4 mg/kg/day
TD50 (mouse, strain Swiss, females, in drinking water, site: lung, lesion: several types, types named in the paper, dosed 113 weeks, study length 113 weeks): 2.98 mg/kg/day
TD50 (mouse, strain Swiss, males, in drinking water, site: all sites, lesion: malignant lymphoma, dosed 112 weeks, study length 112 weeks): 7.85 mg/kg/day
TD50 (mouse, strain Swiss, males, in drinking water, site: bile duct, lesion: several types, types named in the paper, dosed 69 weeks, study length 69 weeks): 22.5 mg/kg/day
TD50 (mouse, strain Swiss, males, in drinking water, site: liver, lesion: hepatoma, dosed 69 weeks, study length 69 weeks): 7.25 mg/kg/day
TD50 (mouse, strain Swiss, males, in drinking water, site: liver, lesion: several types, types named in the paper, dosed 69 weeks, study length 69 weeks): 4.58 mg/kg/day
TD50 (mouse, strain Swiss, males, in drinking water, site: lung, lesion: adenocarcinoma, dosed 112 weeks, study length 112 weeks): 12 mg/kg/day
TD50 (mouse, strain Swiss, males, in drinking water, site: lung, lesion: adenoma, dosed 69 weeks, study length 69 weeks): 10.1 mg/kg/day
TD50 (mouse, strain Swiss, males, in drinking water, site: lung, lesion: adenoma, dosed 112 weeks, study length 112 weeks): 2.93 mg/kg/day
TD50 (mouse, strain Swiss, males, in drinking water, site: lung, lesion: several types, types named in the paper, dosed 112 weeks, study length 112 weeks): 2.51 mg/kg/day

CC1CN(/N=C/c2ccc([N+](=O)[O-])o2)C(=O)N1 (stereo unspecified)
TD50 (rat, strain Sprague-Dawley, females, in feed, site: any site (literature study), lesion: several types, types named in the paper, dosed 46 weeks, study length 66 weeks): 5.59 mg/kg/day
TD50 (rat, strain Sprague-Dawley, females, in feed, site: mammary gland, lesion: adenocarcinoma, dosed 46 weeks, study length 66 weeks): 5.34 mg/kg/day
